Measured values published in US8410150B2, “Inhibitors of carnitine palmitoyltransferase and treating cancer” (University Health Network, priority 2007, dated 2013).
Structures can show the parent of a compound that is named as a salt.

molecular target: T1, human CPT1A (Homo sapiens, UniProt P50416); test: Human CPT1A LC/MS assay; format: biochemical; settings: human CPT1A LC/MS assay, dose response format
T1 construct: made in house; host or cells: Saccharomyces cerevisiae (pESC-trp) or cultured mammalian cells (pCDNA3.1); mitochondrial extract
T1 sequence (P50416 1-773): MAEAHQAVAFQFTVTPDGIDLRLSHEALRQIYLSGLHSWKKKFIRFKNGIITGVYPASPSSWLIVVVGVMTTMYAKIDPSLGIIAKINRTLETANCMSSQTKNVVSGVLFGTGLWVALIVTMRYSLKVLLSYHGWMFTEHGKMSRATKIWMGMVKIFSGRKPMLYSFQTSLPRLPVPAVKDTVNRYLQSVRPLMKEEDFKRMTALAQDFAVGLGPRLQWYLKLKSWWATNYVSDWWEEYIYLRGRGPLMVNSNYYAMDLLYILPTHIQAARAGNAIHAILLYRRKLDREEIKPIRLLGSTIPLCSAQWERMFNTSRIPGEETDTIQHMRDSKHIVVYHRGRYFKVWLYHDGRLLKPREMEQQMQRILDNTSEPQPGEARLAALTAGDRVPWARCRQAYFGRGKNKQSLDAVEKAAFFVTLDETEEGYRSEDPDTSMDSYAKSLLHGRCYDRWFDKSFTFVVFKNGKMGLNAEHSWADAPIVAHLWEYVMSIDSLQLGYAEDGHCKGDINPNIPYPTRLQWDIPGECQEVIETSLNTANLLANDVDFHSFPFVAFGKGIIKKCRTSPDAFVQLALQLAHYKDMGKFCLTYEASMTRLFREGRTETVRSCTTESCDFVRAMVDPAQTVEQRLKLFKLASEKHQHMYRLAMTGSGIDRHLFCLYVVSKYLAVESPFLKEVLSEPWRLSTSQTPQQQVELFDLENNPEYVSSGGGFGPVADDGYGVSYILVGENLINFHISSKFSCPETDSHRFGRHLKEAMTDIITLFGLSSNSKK
Outline: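 Mitochondrial extracts (1.6 μg protein) expressing human CPT1A, preincubated 10 min with compound in 20% DMSO, then reacted 10 min at room temperature with 20 μM palmitoyl-CoA, 50 μM L-carnitine (pH 7.5). Palmitoyl carnitine was quantified by LC/MS against a myristoyl carnitine standard; 16-point, 2-fold titrations gave dose response.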

Row | SMILES | IC50 [µM]
1 | C[N+](C)(C)C[C@@H](CC(=O)[O-])NC(=O)Nc1cccc(-n2cccc2)c1 [Example S84, (R)-3-(3-(3-(1H-pyrrol-1-yl)phenyl)ureido)-4-(trimethylammonio)butanoate] | 100 to 1000
2 | C[N+](C)(C)C[C@@H](CC(=O)[O-])NC(=O)Nc1cc(C(F)(F)F)ccc1Cl [Example S85, (R)-3-(3-(2-chloro-5-(trifluoromethyl)phenyl)ureido)-4-(trimethyl-ammonio)butanoate] | 1000 to 2500
3 | C[N+](C)(C)C[C@@H](CC(=O)[O-])NC(=O)Nc1cccc(Cc2ccccc2)c1 [Example S86, (R)-3-(3-(3-benzylphenyl)ureido)-4-(trimethylammonio)butanoate] | 100 to 1000
4 | CCCCCCCCCCc1ccc(NS(=O)(=O)N[C@H](CC(=O)O)C[N+](C)(C)C)cc1 [Example S92, (R)-3-(N-(4-decylphenyl)sulfamoylamino)-4-(trimethylammonio)butanoate] | ≤ 1
5 | CCCCCCCCc1ccc(N(C)S(=O)(=O)N[C@H](CC(=O)O)C[N+](C)(C)C)cc1 [Example S93, (R)-3-(N-methyl-N-(4-octylphenyl)sulfamoylamino)-4-(trimethylammonio)-butanoate] | 10 to 100
6 | C[N+](C)(C)C[C@@H](CC(=O)O)NC(=O)c1ccc(Br)s1 [Example S95, (R)-2-(5-bromothiophene-2-carboxamido)-3-carboxy-N,N,N-trimethyl-propan-1-aminium trifluoroacetate] | 10 to 100

More lines, now with the values ahead:

Row | IC50 [µM] | SMILES
7 | 10 to 100 | C[N+](C)(C)C[C@@H](CC(=O)O)NS(=O)(=O)c1ccc(CCc2ccccc2)s1 [Example S79, (R)-3-carboxy-N,N,N-trimethyl-2-(5-phenethylthiophene-2-sulfonamido)-propan-1-aminium 2,2,2-trifluoroacetate]
8 | 10 to 100 | Cc1ccc(C#Cc2ccc(S(=O)(=O)N[C@H](CC(=O)O)C[N+](C)(C)C)s2)cc1 [Example S80, (R)-3-carboxy-N,N,N-trimethyl-2-(5-(p-tolylethynyl)thiophene-2-sulfonamido)propan-1-aminium 2,2,2-trifluoroacetate]
9 | 1 to 10 | Cc1ccc(CCc2ccc(S(=O)(=O)N[C@H](CC(=O)O)C[N+](C)(C)C)s2)cc1 [Example S81, (R)-3-carboxy-N,N,N-trimethyl-2-(5-(4-methylphenethyl)thiophene-2-sulfonamido)propan-1-aminium 2,2,2-trifluoroacetate]
10 | 1 to 10 | CCCCCc1ccc(C#Cc2ccc(S(=O)(=O)N[C@H](CC(=O)O)C[N+](C)(C)C)s2)cc1 [Example S82, (R)-3-carboxy-N,N,N-trimethyl-2-(5-((4-pentylphenyl)-ethynyl)thiophene-2-sulfonamido)propan-1-aminium 2,2,2-trifluoroacetate]
11 | 1 to 10 | CCCCCc1ccc(CCc2ccc(S(=O)(=O)N[C@H](CC(=O)O)C[N+](C)(C)C)s2)cc1 [Example S83, (R)-3-carboxy-N,N,N-trimethyl-2-(5-(4-pentylphenethyl)thiophene-2-sulfonamido)propan-1-aminium 2,2,2-trifluoroacetate]
12 | ≤ 1 | CCCCCc1ccc(NS(=O)(=O)N[C@H](CC(=O)O)C[N+](C)(C)C)cc1 [Example S91, (R)-3-(N-(4-pentylphenyl)sulfamoylamino)-4-(trimethylammonio)butanoate]
13 | ≤ 1 | CCCCCc1ccc(C#Cc2ccc(C(=O)N[C@H](CC(=O)O)C[N+](C)(C)C)s2)cc1 [Example S96, (R)-3-carboxy-N,N,N-trimethyl-2-(5-((4-pentylphenyl)ethynyl)-thiophene-2-carboxamido)propan-1-aminium 2,2,2-trifluoroacetate]
14 | ≤ 1 | C[N+](C)(C)C[C@@H](CC(=O)O)NC(=O)c1ccc(C#Cc2ccsc2)s1 [Example S97, (R)-3-carboxy-N,N,N-trimethyl-2-(5-(thiophen-3-ylethynyl)thiophene-2-carboxamido)propan-1-aminium 2,2,2-trifluoroacetate]
